Reference: patent publication US20260108546A1 (ELI LILLY AND COMPANY, priority 2024, published 2026)

Target: T1, hGIP-R (Homo sapiens, UniProt P48546)
T1 construct: expressed in transfected cells; host or cells: HEK-293 clonal cell lines
T1 sequence (P48546 22-466): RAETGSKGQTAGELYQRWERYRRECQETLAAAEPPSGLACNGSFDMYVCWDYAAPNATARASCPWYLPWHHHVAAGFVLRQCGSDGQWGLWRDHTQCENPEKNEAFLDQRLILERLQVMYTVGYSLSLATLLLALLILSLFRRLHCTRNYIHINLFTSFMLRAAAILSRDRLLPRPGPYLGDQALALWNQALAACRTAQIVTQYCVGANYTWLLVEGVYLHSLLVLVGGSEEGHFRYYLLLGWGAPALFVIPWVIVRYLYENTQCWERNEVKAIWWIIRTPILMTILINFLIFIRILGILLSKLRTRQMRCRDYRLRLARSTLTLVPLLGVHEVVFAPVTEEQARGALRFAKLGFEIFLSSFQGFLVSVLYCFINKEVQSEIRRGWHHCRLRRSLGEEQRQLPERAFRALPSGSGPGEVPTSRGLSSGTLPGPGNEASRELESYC
Assay: Functional hGIP-R Assay (cAMP formation, HTRF)
Format: cell-based
Details: for Emax: cAMP efficacy, percent of maximal response to GIP(1-42)OH, 37° C., 0.1% bovine casein, arithmetic mean ± SEM; for EC50: cAMP potency, HEK-293 cells expressing hGIP-R, incubated at 37° C. in the presence of 0.1% bovine casein, geometric mean, read-out: Human GIP-R EC50, nM (SEM, n)
Description: Functional activity was determined using CAMP formation in HEK-293 clonal cell lines expressing hGIP-R. hGIP-R receptor expressing cells were treated with compound (20 point concentration-response curve in DMSO, 2-fold Labcyte Echo direct dilution, 384 well plate Corning Cat #3570) in DMEM (Gibco Cat #31053) supplemented with 1× GlutaMAX™ (Gibco Cat #35050), 0.1% bovine casein (Sigma C4765-10ML), 250 μM IBMX (3-Isobutyl-1-methylxanthine, Acros Cat #228420010) and 20 mM HEPES (Gibco Cat #15630) in a 20 μL assay volume (final DMSO concentration was 1%). After a 30 min incubation at 37° C., the resulting increase in intracellular cAMP was quantitatively determined using the Revvity CAMP Dynamic 2 HTRF Assay Kit (62AM4PEJ). Briefly, cAMP levels within the cell were detected by adding the cAMP-d2 conjugate in cell lysis buffer (10 μL) followed by the antibody anti-cAMP-Eu^3+-Cryptate, also in cell lysis buffer (10 μL). The resulting competitive assay was incubated for at least 60 min at RT, then detected using a BMG Labtech PHERAstar FSX instrument with excitation at 320 nm and emission at 665 nm and 620 nm. PHERAstar units (emission at 665 nm/620 nm*10,000) are inversely proportional to the amount of cAMP present and were converted to nM cAMP per well using a CAMP standard curve. The amount of cAMP generated (nM) in each well was converted to a percent of the maximal response observed with human GIP (1-42) OH. A relative EC50 value and percent top (Emax) were derived by non-linear regression analysis using the percent maximal response vs. the concentration of compound added, fitted to a four-parameter logistic equation.

Row | Compound | Emax [%] | EC50 [nM]
1 | [2H]C([2H])([2H])n1cc(C[C@H](C(=O)NC(C)(C)Cn2nc(C(F)(F)F)cc2-c2ccc(C(C)(C)O)nc2)N2CC[C@@]3(C[C@@H]3c3ccc(-c4cnc5nn(C)cc5c4)cc3Cl)C2=O)cn1 [Example 194, (R)-2-((1S,3R)-1-(2-chloro-4-(2-methyl-2H-pyrazolo[3,4-b]pyridin-5-yl)phenyl)-4-oxo-5-azaspiro[2.4]heptan-5-yl)-N-(1-(5-(6-(2-hydroxypropan-2-yl)pyridin-3-yl)-3-(trifluoromethyl)-1H-pyrazol-1-yl)-2-methylpropan-2-yl)-3-(1-(methyl-d3)-1H-pyrazol-4-yl)propanamide] | 64.1 ± 0.489 | 0.567
2 | CC(C)(Cn1cc(C(F)(F)F)cn1)NC(=O)[C@@H](Cc1cnc2ncccn12)NC(=O)[C@H]1C[C@@H]1c1ccc(NC(=O)C2CC(F)(F)C2)cc1 [Example 46, 3,3-Difluoro-N-(4-((1S,2S)-2-(((R)-3-(imidazo[1,2-a]pyrimidin-3-yl)-1-((2-methyl-1-(4-(trifluoromethyl)-1H-pyrazol-1-yl)propan-2-yl)amino)-1-oxopropan-2-yl)carbamoyl)cyclopropyl)phenyl) cyclobutane-1-carboxamide] | 66.4 ± 2.06 | 77.9
3 | COCc1cn2cc(-c3ccc([C@H]4C[C@@H]4C(=O)N[C@H](Cc4cnc5ncccn45)C(=O)NC(C)(C)Cn4cc(C(F)(F)F)cn4)cc3)cnc2n1 [Example 75, (1S,2S)-N-((R)-3-(Imidazo[1,2-a]pyrimidin-3-yl)-1-((2-methyl-1-(4-(trifluoromethyl)-1H-pyrazol-1-yl)propan-2-yl)amino)-1-oxopropan-2-yl)-2-(4-(2-(methoxymethyl)imidazo[1,2-a]pyrimidin-6-yl)phenyl)cyclopropane-1-carboxamide] | 119 ± 6.64 | 65
4 | Cc1ncc(-c2cc(C(F)(F)F)nn2CC(C)(C)NC(=O)[C@@H](Cc2cnn(C(F)F)c2)N2CC[C@@]3(C[C@@H]3c3ccc(-c4cnc5nn(C6CC6)cc5c4)nc3C)C2=O)cn1 [Example 179, (R)-2-((1R,3R)-1-(6-(2-cyclopropyl-2H-pyrazolo[3,4-b]pyridin-5-yl)-2-methylpyridin-3-yl)-4-oxo-5-azaspiro[2.4]heptan-5-yl)-3-(1-(difluoromethyl)-1H-pyrazol-4-yl)-N-(2-methyl-1-(5-(2-methylpyrimidin-5-yl)-3-(trifluoromethyl)-1H-pyrazol-1-yl)propan-2-yl)propanamide] | 75.9 ± 4.59 | 2.95
5 | Cc1ncc(-c2cc(C(F)(F)F)nn2CC(C)(C)NC(=O)[C@@H](Cc2cnn(C(F)F)c2)N2CCC3(CC3c3ccc(-c4cnc5nn(C)cc5c4)nc3C(F)(F)F)C2=O)cn1 (single isomer, unassigned; isomer 1) [Example 112] | 62 ± 0.9 | 3.21
6 | COCc1cn2cc(-c3ccc([C@H]4C[C@@H]4C(=O)N(C)[C@H](Cc4cnn(C)c4)C(=O)NC(C)(C)Cn4nc(C(F)(F)F)cc4-c4ccc(=O)n(C)c4)cc3)cnc2n1 [Example 90, (1S,2S)-2-(4-(2-(Methoxymethyl)imidazo[1,2-a]pyrimidin-6-yl)phenyl)-N-methyl-N-((R)-1-((2-methyl-1-(5-(1-methyl-6-oxo-1,6-dihydropyridin-3-yl)-3-(trifluoromethyl)-1H-pyrazol-1-yl)propan-2-yl)amino)-3-(1-methyl-1H-pyrazol-4-yl)-1-oxopropan-2-yl)cyclopropane-1-carboxamide] | 120 | 45.5
7 | CC(C)(Cn1ccc(C(F)(F)F)n1)NC(=O)[C@@H](Cc1cnc2ncccn12)NC(=O)[C@H]1C[C@@H]1c1ccc(-c2cnc3nccn3c2)cc1 [Example 39, (1S,2S)-N-((R)-3-(Imidazo[1,2-a]pyrimidin-3-yl)-1-((2-methyl-1-(3-(trifluoromethyl)-1H-pyrazol-1-yl)propan-2-yl)amino)-1-oxopropan-2-yl)-2-(4-(imidazo[1,2-a]pyrimidin-6-yl)phenyl) cyclopropane-1-carboxamide] | 77.8 ± 2.57 | 63.1
8 | Cc1ncc(-c2cc(C(F)(F)F)nn2CC(C)(C)NC(=O)[C@@H](Cc2cnn(C(F)F)c2)N2CCC3(CC3c3ccc(-c4cnc5nn(C)cc5c4)nc3C)C2=O)cn1 (single isomer, unassigned; isomer 1) [Example 111] | 28 ± 0.197 | 6.75
9 | Cc1nc(-c2cnc3nc(C4CC4)cn3c2)ccc1[C@H]1C[C@@]12CCN([C@H](Cc1cnn(C(F)F)c1)C(=O)NC(C)(C)Cn1nc(C(F)(F)F)cc1-c1ccn(C3CC3)c(=O)c1)C2=O [Example 145, (R)—N-(1-(5-(1-Cyclopropyl-2-oxo-1,2-dihydropyridin-4-yl)-3-(trifluoromethyl)-1H-pyrazol-1-yl)-2-methylpropan-2-yl)-2-((1R,3R)-1-(6-(2-cyclopropylimidazo[1,2-a]pyrimidin-6-yl)-2-methylpyridin-3-yl)-4-oxo-5-azaspiro[2.4]heptan-5-yl)-3-(1-(difluoromethyl)-1H-pyrazol-4-yl)propanamide] | 96.6 ± 2.37 | 0.727
10 | CN(C(=O)[C@H]1C[C@@H]1c1ccc(-c2cnc3nn(C)cc3c2)cc1)[C@H](Cc1cnn(C)c1)C(=O)NC(C)(C)Cn1nc(C(F)(F)F)cc1-c1n[nH]c(=O)s1 [Example 30, (1S,2S)-N-Methyl-N-((R)-1-((2-methyl-1-(5-(5-oxo-4,5-dihydro-1,3,4-thiadiazol-2-yl)-3-(trifluoromethyl)-1H-pyrazol-1-yl)propan-2-yl)amino)-3-(1-methyl-1H-pyrazol-4-yl)-1-oxopropan-2-yl)-2-(4-(2-methyl-2H-pyrazolo[3,4-b]pyridin-5-yl)phenyl) cyclopropane-1-carboxamide] | 95.2 ± 0.936 | 198
11 | Cn1cc(C[C@@H](NC(=O)[C@H]2C[C@@H]2c2ccc(-c3cnc4nccn4c3)cc2)C(=O)NC(C)(C)Cn2nc(C(F)(F)F)cc2-c2cnn(C)c2)cn1 [Example 28, (1S,2S)-2-(4-(Imidazo[1,2-a]pyrimidin-6-yl)phenyl)-N-((R)-1-((2-methyl-1-(1′-methyl-5-(trifluoromethyl)-1′H,2H-[3,4′-bipyrazol]-2-yl)propan-2-yl)amino)-3-(1-methyl-1H-pyrazol-4-yl)-1-oxopropan-2-yl)cyclopropane-1-carboxamide] | 91.9 ± 0.597 | 20.5
12 | Cc1cn2cc(-c3ccc([C@H]4C[C@@H]4C(=O)N[C@H](Cc4cnc5ncccn45)C(=O)NC(C)(C)Cn4cc(C(F)(F)F)cn4)cc3)cnc2n1 [Example 83, (1S,2S)-N-((R)-3-(Imidazo[1,2-a]pyrimidin-3-yl)-1-((2-methyl-1-(4-(trifluoromethyl)-1H-pyrazol-1-yl)propan-2-yl)amino)-1-oxopropan-2-yl)-2-(4-(2-methylimidazo[1,2-a]pyrimidin-6-yl)phenyl)cyclopropane-1-carboxamide] | 95.4 ± 7.12 | 44.1
13 | CN(C(=O)[C@H]1C[C@@H]1c1ccc(-c2cnc3nn(C(F)F)cc3c2)cc1)[C@H](Cc1cnn(C)c1)C(=O)NC(C)(C)Cn1nc(C(F)(F)F)cc1-c1ccc(=O)n(C)c1 [Example 88, (1S,2S)-2-(4-(2-(Difluoromethyl)-2H-pyrazolo[3,4-b]pyridin-5-yl)phenyl)-N-methyl-N-((R)-1-((2-methyl-1-(5-(1-methyl-6-oxo-1,6-dihydropyridin-3-yl)-3-(trifluoromethyl)-1H-pyrazol-1-yl)propan-2-yl)amino)-3-(1-methyl-1H-pyrazol-4-yl)-1-oxopropan-2-yl)cyclopropane-1-carboxamide] | 116 | 89
14 | Cn1cc2cc(-c3ccc([C@H]4C[C@@]45CCN([C@H](Cc4cnn(C(F)F)c4)C(=O)NC(C)(C)Cn4nc(C(F)(F)F)cc4P(C)(C)=O)C5=O)c(Cl)c3)cnc2n1 [Example 163, (R)-2-((1S,3R)-1-(2-chloro-4-(2-methyl-2H-pyrazolo[3,4-b]pyridin-5-yl)phenyl)-4-oxo-5-azaspiro[2.4]heptan-5-yl)-3-(1-(difluoro-methyl)-1H-pyrazol-4-yl)-N-(1-(5-(dimethyl-phosphoryl)-3-(trifluoro-methyl)-1H-pyrazol-1-yl)-2-methylpropan-2-yl)propanamide] | 109 | 3.95
